In experiment [1] the test system is HDAC. Description: HDAC inhibition on whole HT-29 cells and HT-29 cell lysate. Type of experiment: cell-based. The following applies: for total HDAC activity, pure substances: HT-29, whole cells or lysate not told apart in the sentence. On the procedure: Bacterial culture and cell-free supernatant collection Pure cultures of bacteria were grown anaerobically in YCFA broth until they reached their stationary growth phase. Cultures were centrifuged at 5,000×g for 5 minutes and the cell-free supernatant (CFS) was filtered using a 0.2 μM filter (Millipore, UK). 1 mL aliquots of the CFS were stored at −80° C. until use. Sodium butyrate, hexanoic and valeric acid were obtained from Sigma Aldrich (UK) and suspensions were prepared in YCFA broth.
To investigate which metabolites were responsible for the strain-induced HDAC inhibition, different concentrations of hexanoic acid, valeric acid and sodium butyrate were measured for their HDAC inhibition on whole HT-29 cells and on HT-29 cell lysate.

The test system of experiment [2] is SHSY5Y. The experiment can be described thus: Neurite outgrowth: microscopy and MAP2 gene expression (qPCR). Type of experiment: cell-based, human. As to conditions: for neurite outgrowth / neuron-like phenotype: undifferentiated SHSY-5Y cells, 10% bacteria supernatant, 200 uM hexanoic acid or 200 uM valproic acid, 17 hrs. As for the experimental part: SHSY5Y were plated in 10 cm petri dishes a density of 2×10^6 cells. After 24 h cells were treated in differentiation medium (growth medium containing 1% FBS without RA) with 10% bacteria supernatants or YCFA+, 10 uM RA, 200 uM hexanoic acid or 200 uM valproic acid, for 17 hrs. There after representative images were taken using phase contrast EVOS XL core microscope at 40×/0.65 magnification. Cells were collected, and total RNA was isolated according to RNeasy mini kit protocol (Qiagen). cDNAs were made using the high capacity cDNA reverse transcription kit (Applied Biosystems). Gene expression was measured using qPCR. GAPDH was used as internal control. Fold change was calculated according to the 2^(−ΔΔct) method.
Cells were seeded onto 8 well chamber slides (Marienfeld Laboratory Glassware) at 5×10^4 cells/well overnight and were treated with 10% bacterial supernatant for 24 hrs. For differentiation, cells were treated with 10 nM Retinoic acid for 5 days before treating with bacterial supernatant. Cells were then fixed with 4% paraformaldehyde in PBS for 20 minutes at room temperature (RT). Fixed cells were washed with PBS, and permeabilized with 1% Triton X-100 in PBS for 10 minutes. After washing with PBS, the slides were incubated with blocking buffer (4% BSA/PBS) for 1 hr at RT before adding anti-MAP2 antibody (sc-74421, Santa Cruz Biotechnology Inc) diluted in 1% BSA/PBS for 12 hr at 4° C. They were then washed twice with PBS, followed by incubation with Alexa Flour 488 conjugated anti-mouse (Molecular Probes Inc) and Alexa Flour 594 conjugated Phalloidin (ab 176757, Abcam) for 1 hr at RT. After washing 3× with PBS, the slides were mounted with Vectorshield[…] containing DAPI (Sigma, Aldrich). Slides were viewed using a Zeiss Axioscope microscope equipped with a 63×/1.2 W Korr objective and filter sets suitable for detection of the fluorochromes used. Manual exposure times for the digital acquisition of images immuno-labelled with MAP-2 were kept constant allowing comparison between different wells and treatments. Phalloidin (F-actin) and DAPI exposure times varied to suit the field of view. Randomised fields of view were acquired using a QImaging camera controlled by Image Pro Plus software. Images were saved as TIFs and opened in Adobe Photoshop CC 2015.1.2 and overlays of the MAP-2, DAPI and Phalloidion images overlaid and merged. Representative images were selected to illustrate the differences in abundance and location of the proteins examined
(In general: Real-time PCR tracks product formation cycle by cycle.)

The test system of experiment [3] is SH-SY5Y neuroblastoma cells. Description: Neuroprotection / cell viability of neuroblastoma cells treated with MPP (CCK-8). Type of experiment: cell-based, human. As to conditions: for protection compared to YCFA-MPP+ treated sample: RA-differentiated SHSY-5Y cells treated with MPP+.
Experimental: Once grown the SH-SY5Y neuroblastoma cells were plated on 96-well plate at 11,000 cells/well and incubated for 2 days. The cells were then transferred to differentiation medium (which contains FBS at 1%) and 10 uM retinoic acid (Sigma Aldrich, cat. n. R2625-100MG). Differentiation medium was replaced every other day and cells were harvested at 7 day of differentiation. Cells were pre-treated with or without MPP (Sigma Aldrich, cat. n. D048-1G) for 8 hours. Subsequently, cells were treated with 10% bacterial supernatant and incubated overnight. Cell viability was measured by using CCK-8 reagent (Sigma Aldrich, Cell Counting Kit-8, cat. n. 96992-3000TESTS-F) and read at 450 nm wavelength.
Experiment [4] concerns BALBc mice. The experiment can be described thus: Monoamine analysis in brainstem of mice fed with bacteria (HPLC). Format: in vivo, mouse. The following applies: 1×10^9 CFU oral gavage 6 days.
Experimental: Neurotransmitter concentration was analysed by HPLC on samples from the brainstem. Briefly, brainstem tissue was sonicated in 500 μl of chilled mobile phase spiked with 4 ng/40 μl of N-Methyl 5-HT (Sigma Chemical Co., UK) as internal standard. The mobile phase contained 0.1 M citric acid, 5.6 mM octane-1-sulphonic acid (Sigma), 0.1 M sodium dihydrogen phosphate, 0.01 mM EDTA (Alkem/Reagecon, Cork) and 9% (v/v) methanol (Alkem/Reagecon) and was adjusted to pH 2.8 using 4 N sodium hydroxide (Alkem/Reagecon). Homogenates were then centrifuged for 15 min at 22,000×g at 4° C. and 40 μl of the supernatant injected onto the HPLC system which consisted of a SCL 10-Avp system controller, LECD 6A electrochemical detector (Shimadzu), a LC-10AS pump, a CTO-10A oven, a SIL-10A autoinjector (with sample cooler maintained at 40 C) and an online Gastorr Degasser (ISS, UK). A reverse-phase column (Kinetex 2.6 u C18 100×4.6 mm, Phenomenex) maintained at 30° C. was employed in the separation (Flow rate 0.9 ml/min). The glassy carbon working electrode combined with an Ag/AgCl reference electrode (Shimdazu) operated a +0.8 V and the chromatograms generated were analyzed using Class-VP 5 software (Shimadzu). The neurotransmitters were identified by their characteristic retention times as determined by standard injections, which run at regular intervals during the sample analysis. The ratios of peak heights of analyte versus internal standard were measured and compared with standard injection. Results were expressed as ng of neurotransmitter per g fresh weight of tissue.
Experiment [5] deals with HT29-mtx epithelial, mucin-producing cell monolayers. Description: IL-8 secretion of HT29-mtx monolayers. Format: cell-based. As to conditions: bacterial supernatants 24 h; compared to untreated and YCFA-treated cells. An excerpt: HT29-mtx epithelial, mucin-producing cell monolayers were used as an in vitro model to evaluate gut barrier disruption and immune stimulation following treatment with MRx0005 and MRx0029.

The test system of experiment [6] is BALBc mice. Description: Gene expression in hippocampus, amygdala and prefrontal cortex (qPCR). Format: in vivo, mouse. As for the experimental part:
Animals were allowed to habituate to their holding room for one week after arrival into the animal unit. They receive oral gavage (200 μL dose) of live biotherapeutics at a dose of 1×10^9 CFU for 6 consecutive days between 15:00 and 17:00. On day 7, the animals are decapitated, and tissues are harvested for experimentation.
(§1) Total RNA was extracted using the mirVana™ miRNA Isolation kit (Ambion/Llife technologies, Paisley, UK) and DNase treated (Turbo DNA-free, Ambion/life technologies) according to the manufacturers recommendations. RNA was quantified using NanoDrop™ spectrophotometer (Thermo Fisher Scientific Inc., Wilmington, Del., USA) according to the manufacturer's instructions. RNA quality was assessed using the Agilent Bioanalyzer (Agilent, Stockport, UK) according to the manufacturer's procedure and an RNA integrity number (RIN) was calculated. RNA with RIN value >7 was used for subsequent experiments. RNA was reverse transcribed to cDNA using the Applied Biosystems High Capacity cDNA kit (Applied Biosystems, Warrington, UK) according to manufacturer's instructions. Briefly, Multiscribe Reverse Transcriptase (50 U/μL) (1)(2)(1)(10) was added as part of RT master mix, incubated for 25° C. for 10 min, 37° C. for 2 h, 85° C. for 5 min and stored at 4° C. Quantitative PCR was carried out using probes (6 carboxy fluorescein-FAM) designed by Applied Biosystems to mouse specific targeted genes, while using β-actin as an endogenous control. Amplification reactions contained 1 μl cDNA, 5 μl of the 2× PCR Master mix (Roche), 900 nM of each primer and were brought to a total of 10 μl by the addition of RNase-free water. All reactions were performed in triplicate using 96-well plates on the LightCycler®480 System. Thermal cycling conditions were as recommended by the manufacturer (Roche) for 55 cycles. To check for amplicon contamination, each run contained no template controls in triplicate for each probe used. Cycle threshold (Ct) values were recorded. Data was normalized using β-actin and transformed using the 2-ΔΔCT method and presented as a fold change vs. control group.
Expression of genes for neurotransmitter receptors [serotonin receptor 1a(5-HTR1a), dopamine D1 receptor, GABA receptor subunit B1, GABAA receptor, NMDA2A (Grin2A) and NMDA2B (Grin2b) receptor], inflammatory markers [IL-1β, IL6, CD11b, TNFα and TLR4], and endocrine markers [corticosterone releasing factor (CRF), corticosterone releasing factor receptors 1 and 2 (CRFR1, CRFR2), brain-derived neurotrophin factor (BDNF), vasopressin receptor, oxytocin receptor, glucocorticoid receptor and mineralocorticoid receptor] were analysed in brain tissue from the hippocampus, amygdala and prefrontal cortex.

Experiment [7] has as its system HT29-mtx epithelial, mucin-producing cell monolayers. Description: mRNA expression of tight junction proteins in HT29-mtx (qRT-PCR). Type of experiment: cell-based. As for the experimental part:
Total RNA was extracted using the RNeasy mini kit (Qiagen, Manchester, JUK) according to the manufacturer's instructions, and the RNA concentration determined by absorbance at 260/280 nm using a spectrophotometer (nano-Drop ND-1000; Thermo Scientific, Wilmington, Del.). For mRNA expression analysis, cDNA was prepared from total RNA using the High-Capacity cDNA reverse transcription kit (Applied Biosystems, UK) according to the manufacturer's instructions. The reverse transcription reactions were performed in a Thermo cycler (Biometra, Germany) at 25° C. for 10 min, 37° C. for 120 min, and 85° C. for 5 min, hold on at 4° C. Resulting cDNA was amplified in duplicates by the SYBR-Green PCR assay, and products were detected on QuantStudio 6 flex real-time PCR machine (Applied Biosystems, UK) using a standardised profile (initial denaturation of 95° C. for 10 minutes, followed by 40 cycles of 15 seconds of denaturation at 95° C. and 60 seconds of annealing/extension at 60/65° C., depending on the primers. A dissociation stage was added after the 40 cycles to generate a melting curve. Analysis was performed using the Applied Biosystems QuantStudio Real-Time PCR Software v1.2. The primer sequences for Actin, Villin, Occludin TJP1 and TJP2 are provided in the sequence listing.

Experiment [8] relates to BALBc mice. Description: Ex vivo gene expression in colon and ileum of mice fed with bacteria. On the set-up: species or system mouse. On the procedure:
as §1, with “Animals were allowed to habituate to their holding room for one week after arrival into the animal unit. They receive oral gavage (200 μL dose) of live biotherapeutics at a dose of 1×10^9 CFU for 6 consecutive days between 15:00 and 17:00. On day 7, the animals are decapitated, and tissues are harvested for experimentation. The in vitro results were compared with data from the ex vivo parallel analysis on the gut of mice fed with […] expression of TJP2 and occludin was quantified in the colon and ileum. […] Total” for “Total”, “mirVanaTM” for “mirVana™”, “NanoDropTM” for “NanoDrop™”, “RNA with RIN value >7 was used for subsequent experiments.” left out

Experiment [9] has as its system mouse Splenocytes. The experiment can be described thus: Spleen cytokine assay ex vivo (LPS or ConA stimulation). Format: in vivo. On the procedure:
Spleens were collected immediately in 5 mL RPMI media following sacrifice and cultured immediately. Spleen cells were first homogenised in this RPMI media, followed by 5 mins incubation with 1 ml of RBC lysis buffer (11814389001 ROCHE, Sigma). A further 10 ml of RPMI media was added, followed by 200G centrifugation for 5 mins. The supernatant was then filtered through 40 um strainer. Cells were counted and seeded (4,000,000/mL media). After 2.5 h of adaptation, cells were stimulated with lipopolysaccharide (LPS-2 μg/ml) or concanavalin A (ConA-2.5 μg/ml) for 24 h. Following stimulation, the supernatants were harvested to assess the cytokine release using Proinflammatory Panel 1 (mouse) V-PLEX Kit (Meso Scale Discovery, Maryland, USA) for TNFα, IL-10, IL-1β, Interferon γ, CXCL2 and IL6. The analyses were performed using MESO QuickPlex SQ 120, SECTOR Imager 2400, SECTOR Imager 6000, SECTOR S 600.
The ex-vivo splenocyte assay involves challenging the splenocytes (cells isolated from the spleen—a main organ involved in immune defense), with a bacterio- or viral-mimetic challenge.

`CCCCCC(=O)O` [hexanoic acid]: the “total HDAC activity, pure substances” value in experiment [1] was “did not show significant inhibitory activity”. For the same molecule, in experiment [2], the “neurite outgrowth / neuron-like phenotype” value is “enhance neurite outgrowth”.
For the molecule `O=c1c(O)c(-c2ccc(O)c(O)c2)oc2cc(O)cc(O)c12` [quercetin, reference compound], the “protection compared to YCFA-MPP+ treated sample” value in experiment [3] is recorded as “about the same”.
Consider `CCCC(=O)[O-].[Na+]` [sodium butyrate, reference compound], for which the “total HDAC activity, pure substances” value in experiment [1] is “significant HDAC inhibition”. Further, the “HDAC inhibition, HT29 cell lysate” value in experiment [1] (HT-29 cell lysate) is reported as “significant (P<0.05) inhibition”. Also, the “HDAC inhibition, HT29 whole cell” value in [1] (whole HT-29 cells) is “significant (P<0.05) inhibition”.
Take `CCCC(CCC)C(=O)O` [valproic acid, reference compound]: in [2], the “neurite outgrowth / neuron-like phenotype” value is “increases neurite outgrowth”. Also, the MAP2 expression result in experiment [2] (undifferentiated neuroblastoma cells, qPCR, GAPDH internal control) is listed as “increase”.
In the case of Parabacteroides distasonis [MRx0005], in experiment [4], the dopamine in brain result is listed as “decrease”. In experiment [5], the “secretion of IL-8” value is “even lower secretion”. In experiment [6] (amygdala), the “expression of BDNF” value is on record as “significantly increased”, the “expression of CD11b” value is “increase”, the “expression of GABBR1” value is recorded as “increased” and the “expression of GABRA2” value is given as “significantly increased”. Also, in [6] (amygdala), the “expression of Grin2a” value was “reduced”, the “expression of Grin2b” value was “reduced” and the “expression of IL-6” value is “reduced”. For the same molecule, in [6] (prefrontal cortex), the “expression of BDNF” value is “significant increase”. In addition, the “gene expression of tight junction proteins” value in experiment [7] is “did not alter”. For the same molecule, the proliferation of neurons entry in experiment [3] (10% bacterial supernatant, without MPP) was “increase”. Moreover, the “protection compared to YCFA-MPP+ treated sample” value in [3] was “about 20%”. Moreover, in experiment [3] (RA-differentiated SHSY-5Y cells, per se (no MPP+)), the mitochondria metabolic activity entry is on record as “increase”. The IDO-1 expression result in [8] (colon) was “increase”. In experiment [8] (ileum), the “expression of IDO1” value is reported as “increased” and the “expression of Tph1” value was “increased”. For the same molecule, in experiment [9] (challenge with LPS), the interleukin-6 in splenocytes result was “reduced”, the “levels of interferon-γ in splenocytes” value is recorded as “significantly reduced” and the “tumour necrosis factor in splenocytes” value is given as “reduced”. The “levels of the chemoattractant CXCL1” value in experiment [9] (splenocytes) is “increase”.

The record behind these values is patent US11660319B2, “Compositions comprising bacterial strains” (priority 2017, dated 2023).
